From patent US8822449B2, “Substituted aminoindanes and analogs thereof, and the pharmaceutical use thereof” (Sanofi, priority 2008, dated 2014)

Target: T1, sodium-proton exchanger of subtype 3 (NHE3) (Homo sapiens, UniProt P48764)
T1 construct: expressed in transfected cells
T1 sequence (P48764 26-834): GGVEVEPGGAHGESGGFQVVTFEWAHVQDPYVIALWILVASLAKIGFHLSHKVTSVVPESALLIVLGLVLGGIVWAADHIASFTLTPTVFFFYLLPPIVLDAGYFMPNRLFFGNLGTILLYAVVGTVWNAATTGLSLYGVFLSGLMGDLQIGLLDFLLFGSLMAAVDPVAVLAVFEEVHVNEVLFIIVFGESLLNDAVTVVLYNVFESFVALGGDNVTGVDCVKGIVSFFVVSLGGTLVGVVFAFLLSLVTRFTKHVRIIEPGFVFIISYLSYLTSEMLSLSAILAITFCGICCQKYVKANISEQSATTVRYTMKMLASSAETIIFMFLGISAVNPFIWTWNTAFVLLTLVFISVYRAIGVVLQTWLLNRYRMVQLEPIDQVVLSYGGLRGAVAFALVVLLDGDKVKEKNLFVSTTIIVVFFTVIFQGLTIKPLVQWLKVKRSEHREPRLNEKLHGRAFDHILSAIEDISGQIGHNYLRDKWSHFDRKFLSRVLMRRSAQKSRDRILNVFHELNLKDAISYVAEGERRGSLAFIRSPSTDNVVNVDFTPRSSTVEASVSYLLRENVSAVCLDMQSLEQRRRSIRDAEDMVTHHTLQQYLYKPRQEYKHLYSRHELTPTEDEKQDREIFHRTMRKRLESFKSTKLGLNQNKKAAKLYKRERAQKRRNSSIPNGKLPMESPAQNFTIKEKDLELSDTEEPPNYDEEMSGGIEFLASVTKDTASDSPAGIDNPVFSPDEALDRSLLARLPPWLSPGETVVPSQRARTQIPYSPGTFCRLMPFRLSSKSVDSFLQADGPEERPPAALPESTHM
Test: Recovery of intracellular pH (pHi) after acidification in LAP1 cells stably expressing NHE3 (BCECF fluorescence, FLIPR)
Assay type: cell-based
Conditions: LAP1 cells stably expressing NHE3; pH recovery after acidification; range 1 is % inhibition at 10 μM; read-out: Activity range (inhibitory effect on NHE3)

## Brc1ccccc1O[C@@H]1c2ccccc2C[C@H]1N1C[C@H]2CNC[C@H]2C1 (racemic) [Example 11, 2-[rac-trans-(1,2)-1-(2-bromophenoxy)indan-2-yl]octahydropyrrolo[3,4-c]pyrrole]
  IC50: 1000 to 10000 nM

## Cc1nnc(C)n1-c1ccc(O[C@H]2c3cc(Cl)cc(Cl)c3C[C@@H]2NC2CCCC2)c(F)c1 [Example 746, Cyclopentyl-{trans-(1S,2S)-4,6-dichloro-1-[4-(3,5-dimethyl-[1,2,4]triazol-4-yl)-2-fluoro-phenoxy]-indan-2-yl}-amine]
  IC50: < 1000 nM

## CN(C)S(=O)(=O)c1ccc(OC2c3ccccc3CC2N2CCC[C@@H](N)C2)c(Cl)c1Cl (mixture of isomers) [Example 520, 4-[rac-trans-(1,2)-2-((R)-3-aminopiperidin-1-yl)indan-1-yloxy]-2,3-dichloro-N,N-dimethylbenzenesulfonamide]
  IC50: < 1000 nM

## N#Cc1ccc(S[C@H]2c3ccccc3C[C@@H]2N2CCCC2)cc1 [Example 455, 4-((1S,2S)-2-pyrrolidin-1-ylindan-1-ylsulfanyl)benzonitrile]
  inhibition at 10 µM: 20 to 50%

## N[C@H]1CCCN([C@@H]2Cc3ccccc3[C@H]2Oc2cccc(N3CCNCC3)c2)C1 (racemic) [Example 169, (S)-1-[rac-trans-(1,2)-1-(3-piperazin-1-ylphenoxy)indan-2-yl]piperidin-3-ylamine]
  IC50: < 1000 nM

## Cc1nn(C)c(C)c1-c1ccc(O[C@H]2c3cc(Cl)ccc3C[C@@H]2N2CC[C@@H](O)C2)cc1 [Example 140, (R)-1-{trans-(1S,2S)-6-chloro-1-[4-(1,3,5-trimethyl-1H-pyrazol-4-yl)phenoxy]indan-2-yl}pyrrolidin-3-ol]
  IC50: 1000 to 10000 nM

## NS(=O)(=O)c1ccc(O[C@H]2c3cc(Cl)cc(Cl)c3C[C@@H]2N2CCS(=O)(=O)CC2)cc1 [Example 483, 4-[(1S,2S)-4,6-dichloro-2-(1,1-dioxo-1lambda6-thiomorpholin-4-yl)indan-1-yloxy]benzenesulfonamide]
  IC50: < 1000 nM

## CN1CCC2CN([C@H]3Cc4c(Cl)cc(Cl)cc4[C@@H]3Oc3ccc(S(C)(=O)=O)cc3)CC21 (single isomer, unassigned) [Example 582]
  IC50: 1000 to 10000 nM

## N[C@H]1CCCN([C@H]2CCc3ccccc3[C@@H]2Oc2ccccc2Br)C1 (racemic) [Example 151, (S)-1-[rac-trans-(1,2)-1-(2-bromophenoxy)-1,2,3,4-tetrahydronaphthalen-2-yl]piperidin-3-ylamine]
  inhibition at 10 µM: 20 to 50%

## N#Cc1ccc(O[C@H]2c3cc(Cl)cc(F)c3C[C@@H]2N2CC[C@@H](O)C2)c(F)c1 [Example 557, 4-[trans-(1S,2S)-6-chloro-4-fluoro-2-((R)-3-hydroxypyrrolidin-1-yl)indan-1-yloxy]-3-fluorobenzonitrile]
  IC50: 1000 to 10000 nM

## Cc1nnc(C)n1-c1ccc(O[C@H]2c3cc(Cl)ccc3C[C@@H]2N2CCCC2)cc1 [Example 502, 4-[4-(trans-(1S,2S)-6-chloro-2-pyrrolidin-1-ylindan-1-yloxy)phenyl]-3,5-dimethyl-4H-[1,2,4]triazole]
  IC50: < 1000 nM

## CC1(C)NC(=O)N(c2ccc(Cl)c(O[C@H]3c4cc(Cl)cc(Cl)c4C[C@@H]3N3CC[C@@H](O)C3)c2)C1=O [Example 431, 3-{4-chloro-3-[(1S,2S)-4,6-dichloro-2-((R)-3-hydroxypyrrolidin-1-yl)indan-1-yloxy]phenyl}-5,5-dimethylimidazolidine-2,4-dione]
  IC50: 1000 to 10000 nM

## N[C@H]1CCCN([C@H]2CCc3ccccc3[C@@H]2Oc2ccc(Cl)nc2)C1 (racemic) [Example 190, (S)-1-[rac-trans-(1,2)-1-(6-chloropyridin-3-yloxy)-1,2,3,4-tetrahydronaphthalen-2-yl]piperidin-3-ylamine]
  inhibition at 10 µM: 20 to 50%

## NCC1CCN([C@@H]2Cc3ccccc3[C@H]2Oc2cccc3[nH]ccc23)C1 (mixture of isomers) [Example 601, C-{1-[rac-trans-(1,2)-1-(1H-indol-4-yloxy)indan-2-yl]pyrrolidin-3-yl}methylamine]
  IC50: 1000 to 10000 nM

## CC(C)[C@H]1COC(=O)N1c1ccc(F)c(O[C@H]2c3cc(Cl)cc(F)c3C[C@@H]2N2CC[C@@H](O)C2)c1 [Example 210, (S)-3-{3-[(1S,2S)-6-chloro-4-fluoro-2-((R)-3-hydroxypyrrolidin-1-yl)indan-1-yloxy]-4-fluorophenyl}-4-isopropyloxazolidin-2-one]
  IC50: 1000 to 10000 nM

## O=C1CCC(=O)N1c1ccc(Cl)c(O[C@H]2c3cc(Cl)cc(Cl)c3C[C@@H]2N2CC[C@@H](O)C2)c1 [Example 337, 1-{4-chloro-3-[(1S,2S)-4,6-dichloro-2-((R)-3-hydroxypyrrolidin-1-yl)indan-1-yloxy]phenyl}pyrrolidine-2,5-dione]
  IC50: 1000 to 10000 nM

## Cc1cc(O[C@@H]2c3ccccc3C[C@H]2N2C[C@H]3CNC[C@H]3C2)cc(C)c1C#N (racemic) [Example 505, 4-[rac-trans-(1,2)-2-(Hexahydropyrrolo[3,4-c]pyrrol-2-yl)indan-1-yloxy]-2,6-dimethylbenzonitrile]
  IC50: 1000 to 10000 nM

## N#Cc1ccc(O[C@H]2c3ccccc3CC[C@@H]2N2CCC[C@@H](N)C2)c(F)c1F (racemic) [Example 509, 4-[rac-trans-(1,2)-2-((R)-3-aminopiperidin-1-yl)-1,2,3,4-tetrahydronaphthalen-1-yloxy]-2,3-difluorobenzonitrile]
  IC50: 1000 to 10000 nM

## N[C@@H]1CCCN([C@H]2CCc3ccccc3[C@@H]2Oc2ccc(Cl)nc2)C1 (racemic) [Example 81, (R)-1-[rac-trans-(1,2)-1-(6-chloropyridin-3-yloxy)-1,2,3,4-tetrahydronaphthalen-2-yl]piperidin-3-ylamine]
  inhibition at 10 µM: 20 to 50%

## Cc1nnc(C)n1-c1ccc(O[C@H]2c3cc(Cl)cc(Cl)c3C[C@@H]2N2CC[C@@H](F)C2)cc1 [Example 561, 4-{4-[trans-(1S,2S)-4,6-dichloro-2-((R)-3-fluoropyrrolidin-1-yl)indan-1-yloxy]phenyl}-3,5-dimethyl-4H-[1,2,4]triazole]
  IC50: < 1000 nM

## NCC1CCN([C@@H]2Cc3ccccc3[C@H]2Oc2ccc(Br)cc2-c2cc[nH]n2)CC1 (racemic) [Example 599, C-(1-{rac-trans-(1,2)-1-[4-bromo-2-(1H-pyrazol-3-yl)phenoxy]indan-2-yl}piperidin-4-yl)methylamine]
  IC50: 1000 to 10000 nM

## N[C@H]1CCCN([C@H]2CCc3ccccc3[C@@H]2Oc2ccc(-n3ccnc3)cc2)C1 (racemic) [Example 180, (S)-1-[rac-trans-(1,2)-1-(4-imidazol-1-ylphenoxy)-1,2,3,4-tetrahydronaphthalen-2-yl]piperidin-3-ylamine]
  inhibition at 10 µM: 20 to 50%

## CCC(CC)N[C@@H]1Cc2ccccc2[C@H]1Oc1ccc(S(C)(=O)=O)cc1 (racemic) [Example 723, (1-Ethyl-propyl)-[rac-trans-(1,2)-1-(4-methanesulfonyl-phenoxy)-indan-2-yl]-amine]
  inhibition at 10 µM: 20 to 50%

## Cc1cc(O[C@H]2c3cc(F)cc(Cl)c3C[C@@H]2N2CCNCC2)ccc1S(C)(=O)=O (racemic) [Example 281, 1-[rac-trans-(1,2)-4-chloro-6-fluoro-1-(4-methanesulfonyl-3-methylphenoxy)indan-2-yl]piperazine]
  IC50: < 1000 nM

## CN1CCN(c2ccc(O[C@H]3c4cc(Cl)cc(Cl)c4C[C@@H]3N3CC[C@@H](O)C3)c(F)c2)C1=O [Example 330, 1-{4-[trans-(1S,2S)-4,6-dichloro-2-((R)-3-hydroxypyrrolidin-1-yl)indan-1-yloxy]-3-fluorophenyl}-3-methylimidazolidin-2-one]
  IC50: < 1000 nM

## N[C@@H]1CCCN([C@H]2CCc3ccccc3[C@@H]2Oc2cccc(F)c2)C1 (racemic) [Example 57, (R)-1-[rac-trans-(1,2)-1-(3-fluorophenoxy)-1,2,3,4-tetrahydronaphthalen-2-yl]piperidin-3-ylamine]
  inhibition at 10 µM: 20 to 50%

## Cc1nnc(C)n1-c1ccc(O[C@H]2c3cc(Cl)cc(Cl)c3C[C@@H]2N(C)CCO)c(F)c1 [Example 704, 2-({trans-(1S,2S)-4,6-Dichloro-1-[4-(3,5-dimethyl-[1,2,4]triazol-4-yl)-2-fluoro-phenoxy]-indan-2-yl}-methyl-amino)-ethanol]
  IC50: < 1000 nM

## Cc1ccc(O[C@H]2c3ccccc3CC[C@@H]2N2CCC[C@@H](N)C2)cc1Cl (racemic) [Example 53, (R)-1-[rac-trans-(1,2)-1-(3-chloro-4-methylphenoxy)-1,2,3,4-tetrahydronaphthalen-2-yl]piperidin-3-ylamine]
  inhibition at 10 µM: 20 to 50%

## N[C@@H]1CCCN([C@H]2CCc3ccccc3[C@@H]2Oc2ccc(F)c(C(F)(F)F)c2)C1 (racemic) [Example 69, (R)-1-[rac-trans-(1,2)-1-(4-fluoro-3-trifluoromethylphenoxy)-1,2,3,4-tetrahydronaphthalen-2-yl]piperidin-3-ylamine]
  inhibition at 10 µM: 20 to 50%

## N[C@@H]1CCCN([C@H]2CCc3ccccc3[C@@H]2Oc2cccc(OC(F)F)c2)C1 (racemic) [Example 56, (R)-1-[rac-trans-(1,2)-1-(3-difluoromethoxyphenoxy)-1,2,3,4-tetrahydronaphthalen-2-yl]piperidin-3-ylamine]
  inhibition at 10 µM: 20 to 50%
